The results in this text go back to patent US10525088B2, “Lactic acid bacterial immunopotentiating activity-increasing composition and method for increasing immunopotentiating activity of lactic acid bacteria” (Kirin Holdings Kabushiki Kaisha, priority 2014, dated 2020).

The assay deals with dendritic cells induced from myeloblasts. Kind of assay: Interferon-α production by dendritic cells induced from mouse myeloblasts (Flt-3L), cultured with JCM5805 and sample. The assay is classed as cell-based, mice. The following applies: 0.1 (w/v) % JCM5805 + 0.25 (w/v) % sample; myeloblast-derived dendritic cells; 24 hours. The method, then:
Medium was inoculated with 1 ml of the obtained cell suspension and the culture was incubated at 37° C., 5% CO2 in a CO2 incubator for 1 week to induce dendritic cells. […] The samples were the lactic acid bacteria only, sucrose palmitate, and Ryoto Sugar Ester […] (mainly containing sucrose palmitate) (Mitsubishi-Kagaku Foods Corporation).

Take sucrose palmitate: the “change of interferon-α inducing activity of JCM5805 by the sample” value is “increased”.
